Source: patent US20100010219A1, “METHOD FOR PRODUCING PYRROLIDINE COMPOUND” (JAPAN TOBACCO INC., priority 2006, published 2010)

Target: T1, human HSD-1 (recombinant HSD-1) (Homo sapiens, UniProt P28845)
T1 construct: made in house
Experiment: HSD-1 activity inhibitory action in vitro (SPA, conversion of cortisone to cortisol)
Type: biochemical
Details: recombinant human HSD-1 expressed using baculovirus system; 10 nM 3H cortisone, 500 μM NADPH; room temperature 90 to 120 min; read-out: hHSD1 (IC50 (nM))

T1 sequence (P28845 whole entry): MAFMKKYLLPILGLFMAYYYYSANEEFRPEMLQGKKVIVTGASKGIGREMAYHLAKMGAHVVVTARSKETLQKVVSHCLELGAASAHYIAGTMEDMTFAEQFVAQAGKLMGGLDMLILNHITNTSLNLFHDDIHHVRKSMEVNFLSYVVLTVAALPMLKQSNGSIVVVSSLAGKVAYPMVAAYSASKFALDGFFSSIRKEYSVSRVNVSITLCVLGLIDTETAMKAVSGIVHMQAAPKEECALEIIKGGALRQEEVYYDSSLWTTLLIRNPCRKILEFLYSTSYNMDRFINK

IC50: < 30 nM
SMILES: CC1(c2c(C(=O)N3CCC(c4ccccc4C(F)(F)F)C3)cnn2[C@H]2CC[C@@H](C(=O)O)CC2)CC1 (stereo partly drawn) [Example 191, cis-4-{5-(1-methylcyclopropyl)-4-[3-(2-trifluoromethylphenyl)pyrrolidine-1-carbonyl]pyrazol-1-yl}cyclohexanecarboxylic acid]
